According to ChEMBL document CHEMBL3044862, “Quantitative Structure-Activity Relationships of Fluazinam and Related Fungicidal N-Phenylpyridinamines” (1995):
Converted amounts (≈) assume the structure as drawn.

What follows are compounds tested on Botrytis cinerea (assay: Fungicidal activity against Botryotinia fuckeliana inoculated on compound pre-treated one-leaf stage cucumber seedlings assessed as prevention of leaf lesions measured 3 days after inoculation).
Format: functional
`Oc1c(Cl)cc(Nc2ncc(C(F)(F)F)cc2Cl)cc1Cl` gave an MIC greater than 500 µg/mL. `N#CSc1c(C(F)(F)F)cc([N+](=O)[O-])c(Nc2ncc(C(F)(F)F)cc2Cl)c1[N+](=O)[O-]` gave an MIC greater than 500 µg/mL. For `C[S+]([O-])c1c(C(F)(F)F)cc([N+](=O)[O-])c(Nc2ncc(C(F)(F)F)cc2Cl)c1[N+](=O)[O-]` (stereo unspecified), the MIC was greater than 500 µg/mL. `CCOc1c(C(F)(F)F)cc([N+](=O)[O-])c(Nc2ncc(C(F)(F)F)cc2Cl)c1[N+](=O)[O-]` gave an MIC greater than 500 µg/mL. `CCCOc1c(C(F)(F)F)cc([N+](=O)[O-])c(Nc2ncc(C(F)(F)F)cc2Cl)c1[N+](=O)[O-]` showed an MIC greater than 500 µg/mL. Work on `CCCCOc1c(C(F)(F)F)cc([N+](=O)[O-])c(Nc2ncc(C(F)(F)F)cc2Cl)c1[N+](=O)[O-]` yielded an MIC greater than 500 µg/mL. Work on `CC(C)Oc1c(C(F)(F)F)cc([N+](=O)[O-])c(Nc2ncc(C(F)(F)F)cc2Cl)c1[N+](=O)[O-]` yielded an MIC greater than 500 µg/mL. In the case of `CC(C)COc1c(C(F)(F)F)cc([N+](=O)[O-])c(Nc2ncc(C(F)(F)F)cc2Cl)c1[N+](=O)[O-]`, the MIC is reported as greater than 500 µg/mL. `O=[N+]([O-])c1cc(C(F)(F)F)c(OCC(F)(F)C(F)F)c([N+](=O)[O-])c1Nc1ncc(C(F)(F)F)cc1Cl` gave an MIC greater than 500 µg/mL. `O=[N+]([O-])c1cc(C(F)(F)F)c(OCC(F)(F)F)c([N+](=O)[O-])c1Nc1ncc(C(F)(F)F)cc1Cl` showed an MIC greater than 500 µg/mL. With `O=[N+]([O-])c1cc(C(F)(F)F)c(OCCCl)c([N+](=O)[O-])c1Nc1ncc(C(F)(F)F)cc1Cl` the MIC was greater than 500 µg/mL. Work on `O=[N+]([O-])c1cc(C(F)(F)F)c(Oc2ccccc2C(F)(F)F)c([N+](=O)[O-])c1Nc1ncc(C(F)(F)F)cc1Cl` yielded an MIC greater than 500 µg/mL. Work on `O=[N+]([O-])c1cc(C(F)(F)F)c(Oc2cccc(C(F)(F)F)c2)c([N+](=O)[O-])c1Nc1ncc(C(F)(F)F)cc1Cl` yielded an MIC greater than 500 µg/mL. `O=[N+]([O-])c1cc(C(F)(F)F)c(Oc2ccc(C(F)(F)F)cc2)c([N+](=O)[O-])c1Nc1ncc(C(F)(F)F)cc1Cl` was tested, and the MIC was greater than 500 µg/mL. Compound `O=[N+]([O-])c1cc(C(F)(F)F)c(Oc2ccc(C(F)(F)F)cc2Cl)c([N+](=O)[O-])c1Nc1ncc(C(F)(F)F)cc1Cl` has an MIC greater than 500 µg/mL. Work on `CSc1c(C(F)(F)F)cc([N+](=O)[O-])c(Nc2ncc(C(F)(F)F)cc2Cl)c1[N+](=O)[O-]` yielded an MIC greater than 500 µg/mL. `FC(F)(F)c1cnc(Nc2cc(Cl)c(Oc3ncc(C(F)(F)F)cc3Cl)c(Cl)c2)c(Cl)c1` gave an MIC greater than 500 µg/mL. Compound `CS(=O)(=O)c1cc([N+](=O)[O-])c(Nc2ncc(C(F)(F)F)cc2Cl)c([N+](=O)[O-])c1Cl` has an MIC greater than 500 µg/mL. For `CCN(CC)S(=O)(=O)c1cc([N+](=O)[O-])c(Nc2ncc(C(F)(F)F)cc2Cl)c([N+](=O)[O-])c1Cl`, the MIC was greater than 500 µg/mL. Work on `O=[N+]([O-])c1cc(C(F)(F)F)cc([N+](=O)[O-])c1Nc1ncc(C(F)(F)F)cc1Cl` yielded an MIC greater than 500 µg/mL. Work on `O=[N+]([O-])c1cc(C(F)(F)F)c(F)c([N+](=O)[O-])c1Nc1ncc(C(F)(F)F)cc1Cl` yielded an MIC greater than 500 µg/mL. `O=[N+]([O-])c1cc(C(F)(F)F)c(Br)c([N+](=O)[O-])c1Nc1ncc(C(F)(F)F)cc1Cl` showed an MIC of less than 16 µg/mL. Work on `O=[N+]([O-])c1cc(C(F)(F)F)c(I)c([N+](=O)[O-])c1Nc1ncc(C(F)(F)F)cc1Cl` yielded an MIC greater than 500 µg/mL. Work on `Nc1c(C(F)(F)F)cc([N+](=O)[O-])c(Nc2ncc(C(F)(F)F)cc2Cl)c1[N+](=O)[O-]` yielded an MIC greater than 500 µg/mL. In the case of `N#CNc1c(C(F)(F)F)cc([N+](=O)[O-])c(Nc2ncc(C(F)(F)F)cc2Cl)c1[N+](=O)[O-]`, the MIC is reported as greater than 500 µg/mL. `O=[N+]([O-])c1cc(C(F)(F)F)c(O)c([N+](=O)[O-])c1Nc1ncc(C(F)(F)F)cc1Cl` gave an MIC greater than 500 µg/mL. With `COc1c(C(F)(F)F)cc([N+](=O)[O-])c(Nc2ncc(C(F)(F)F)cc2Cl)c1[N+](=O)[O-]` the MIC was greater than 500 µg/mL. With `Cc1cc([N+](=O)[O-])c(Nc2ncc(C(F)(F)F)cc2Cl)c([N+](=O)[O-])c1Cl` the MIC was greater than 500 µg/mL. For `Cc1c(Cl)c([N+](=O)[O-])c(Nc2ncc(C(F)(F)F)cc2Cl)c([N+](=O)[O-])c1Cl`, the MIC was greater than 500 µg/mL. Compound `O=[N+]([O-])c1cc(C(F)(F)F)c(Cl)cc1Nc1ncc(C(F)(F)F)cc1Cl` has an MIC greater than 500 µg/mL. `Nc1cc(C(F)(F)F)c(Cl)c(N)c1Nc1ncc(C(F)(F)F)cc1Cl` showed an MIC greater than 500 µg/mL. With `Nc1c(Cl)c(C(F)(F)F)cc([N+](=O)[O-])c1Nc1ncc(C(F)(F)F)cc1Cl` the MIC was greater than 500 µg/mL. Work on `O=[N+]([O-])c1c(Cl)c(C(F)(F)F)c(Cl)c([N+](=O)[O-])c1Nc1ncc(C(F)(F)F)cc1Cl` yielded an MIC of 250 µg/mL (≈ 500 µM). In the case of `N#Cc1cc([N+](=O)[O-])c(Nc2ncc(C(F)(F)F)cc2Cl)c([N+](=O)[O-])c1Cl`, the MIC is reported as greater than 500 µg/mL. For `COC(=O)c1cc([N+](=O)[O-])c(Nc2ncc(C(F)(F)F)cc2Cl)c([N+](=O)[O-])c1Cl`, the MIC was greater than 500 µg/mL. `O=[N+]([O-])c1c(Cl)cc(Nc2ncc(C(F)(F)F)cc2Cl)c([N+](=O)[O-])c1Cl` gave an MIC greater than 500 µg/mL. `O=[N+]([O-])c1cc(C(F)(F)F)c(Nc2ncc(C(F)(F)F)cc2Cl)c([N+](=O)[O-])c1Cl` gave an MIC of less than 16 µg/mL. For `CCCSP(=O)(OCC)Oc1c(Cl)cc(Nc2ncc(C(F)(F)F)cc2Cl)cc1Cl` (stereo unspecified), the MIC was greater than 500 µg/mL. `CCOP(=O)(Oc1c(Cl)cc(Nc2ncc(C(F)(F)F)cc2Cl)cc1Cl)SC(C)CC` (stereo unspecified) showed an MIC greater than 500 µg/mL. `O=[N+]([O-])c1cc(C(F)(F)F)c(Cl)c([N+](=O)[O-])c1Nc1ncc(Cl)cc1Br` gave an MIC greater than 500 µg/mL. Work on `O=[N+]([O-])c1cc(C(F)(F)F)c(Cl)c([N+](=O)[O-])c1Nc1ncc(Br)cc1Br` yielded an MIC greater than 500 µg/mL. `O=[N+]([O-])c1cc(C(F)(F)F)c(Cl)c([N+](=O)[O-])c1Nc1ncc(C(F)(F)F)cc1Br` gave an MIC of less than 16 µg/mL. `O=[N+]([O-])c1cc(C(F)(F)F)c(Cl)c([N+](=O)[O-])c1Nc1ncccc1C(F)(F)F` was tested, and the MIC was greater than 500 µg/mL. With `O=[N+]([O-])c1cc(C(F)(F)F)c(Cl)c([N+](=O)[O-])c1Nc1ncc(Cl)cc1C(F)(F)F` the MIC was 16 µg/mL (≈ 34.4 µM). `O=[N+]([O-])c1cc(C(F)(F)F)c(Cl)c([N+](=O)[O-])c1Nc1ncc(Br)cc1C(F)(F)F` gave an MIC of 63 µg/mL (≈ 124 µM). `O=[N+]([O-])c1cc(C(F)(F)F)c(Cl)c([N+](=O)[O-])c1Nc1ncc(C(F)(F)F)cc1C(F)(F)F` gave an MIC of less than 16 µg/mL. `FC(F)(F)c1cnc(Nc2cc(Cl)cc(Cl)c2)c(Cl)c1` was tested, and the MIC was greater than 500 µg/mL. Compound `O=[N+]([O-])c1c(Cl)cc(Cl)c([N+](=O)[O-])c1Nc1ncc(C(F)(F)F)cc1Cl` has an MIC greater than 500 µg/mL. `Fc1c(Cl)cc(Nc2ncc(C(F)(F)F)cc2Cl)c(F)c1Cl` was tested, and the MIC was greater than 500 µg/mL. Compound `N#Cc1c(Cl)c(Cl)c(Cl)c(C#N)c1Nc1ncc(C(F)(F)F)cc1Cl` has an MIC greater than 500 µg/mL. Compound `O=[N+]([O-])c1cc(C(F)(F)F)c(Cl)c([N+](=O)[O-])c1Nc1ccc(C(F)(F)F)cn1` has an MIC greater than 500 µg/mL. Work on `O=[N+]([O-])c1cc(C(F)(F)F)c(Cl)c([N+](=O)[O-])c1Nc1cc(C(F)(F)F)c(Cl)cn1` yielded an MIC of 16 µg/mL (≈ 34.4 µM). Compound `O=[N+]([O-])c1cc(C(F)(F)F)c(Cl)c([N+](=O)[O-])c1Nc1nc(C(F)(F)F)c(Cl)cc1Cl` has an MIC of less than 16 µg/mL. `O=[N+]([O-])c1cc(C(F)(F)F)c(Cl)c([N+](=O)[O-])c1Nc1ncc(Cl)cc1Cl` showed an MIC greater than 500 µg/mL. `O=[N+]([O-])c1cc(C(F)(F)F)c(Cl)c([N+](=O)[O-])c1Nc1ncc(Br)cc1Cl` showed an MIC greater than 500 µg/mL. Work on `O=[N+]([O-])c1cc(C(F)(F)F)c(Cl)c([N+](=O)[O-])c1Nc1nc(F)c(C(F)(F)F)cc1Cl` yielded an MIC of less than 16 µg/mL. With `O=[N+]([O-])c1cc(C(F)(F)F)c(Cl)c([N+](=O)[O-])c1Nc1nc(Cl)c(C(F)(F)F)cc1Cl` the MIC was less than 16 µg/mL. `CN(C)c1nc(Nc2c([N+](=O)[O-])cc(C(F)(F)F)c(Cl)c2[N+](=O)[O-])c(Cl)cc1C(F)(F)F` was tested, and the MIC was greater than 500 µg/mL. With `CNc1nc(Nc2c([N+](=O)[O-])cc(C(F)(F)F)c(Cl)c2[N+](=O)[O-])c(Cl)cc1C(F)(F)F` the MIC was greater than 500 µg/mL. `N#Cc1cnc(Nc2c([N+](=O)[O-])cc(C(F)(F)F)c(Cl)c2[N+](=O)[O-])c(Cl)c1` showed an MIC of 63 µg/mL (≈ 149 µM). For `NC(=O)c1cnc(Nc2c([N+](=O)[O-])cc(C(F)(F)F)c(Cl)c2[N+](=O)[O-])c(Cl)c1`, the MIC was greater than 500 µg/mL. Work on `CCOC(=O)c1cnc(Nc2c([N+](=O)[O-])cc(C(F)(F)F)c(Cl)c2[N+](=O)[O-])c(Cl)c1` yielded an MIC greater than 500 µg/mL. For `COC(=O)c1cnc(Nc2c([N+](=O)[O-])cc(C(F)(F)F)c(Cl)c2[N+](=O)[O-])c(Cl)c1`, the MIC was greater than 500 µg/mL. With `O=C(O)c1cnc(Nc2c([N+](=O)[O-])cc(C(F)(F)F)c(Cl)c2[N+](=O)[O-])c(Cl)c1` the MIC was greater than 500 µg/mL. Compound `Cc1c(Cl)cnc(Nc2c([N+](=O)[O-])cc(C(F)(F)F)c(Cl)c2[N+](=O)[O-])c1Cl` has an MIC greater than 500 µg/mL. Compound `O=[N+]([O-])c1cc(C(F)(F)F)c(Cl)c([N+](=O)[O-])c1Nc1ncc(C(F)(F)F)cc1Cl` [FLUAZINAM] has an MIC of less than 16 µg/mL.
